Experimental findings from ChEMBL document CHEMBL4033665, “Synthesis and applications of benzohydroxamic acid-based histone deacetylase inhibitors” (Eur J Med Chem, 2017) are described below.

In assay [1] the target is T1, Protein deacetylase HDAC6 (Homo sapiens, UniProt Q9UBN7).
T1 sequence (Q9UBN7 whole entry): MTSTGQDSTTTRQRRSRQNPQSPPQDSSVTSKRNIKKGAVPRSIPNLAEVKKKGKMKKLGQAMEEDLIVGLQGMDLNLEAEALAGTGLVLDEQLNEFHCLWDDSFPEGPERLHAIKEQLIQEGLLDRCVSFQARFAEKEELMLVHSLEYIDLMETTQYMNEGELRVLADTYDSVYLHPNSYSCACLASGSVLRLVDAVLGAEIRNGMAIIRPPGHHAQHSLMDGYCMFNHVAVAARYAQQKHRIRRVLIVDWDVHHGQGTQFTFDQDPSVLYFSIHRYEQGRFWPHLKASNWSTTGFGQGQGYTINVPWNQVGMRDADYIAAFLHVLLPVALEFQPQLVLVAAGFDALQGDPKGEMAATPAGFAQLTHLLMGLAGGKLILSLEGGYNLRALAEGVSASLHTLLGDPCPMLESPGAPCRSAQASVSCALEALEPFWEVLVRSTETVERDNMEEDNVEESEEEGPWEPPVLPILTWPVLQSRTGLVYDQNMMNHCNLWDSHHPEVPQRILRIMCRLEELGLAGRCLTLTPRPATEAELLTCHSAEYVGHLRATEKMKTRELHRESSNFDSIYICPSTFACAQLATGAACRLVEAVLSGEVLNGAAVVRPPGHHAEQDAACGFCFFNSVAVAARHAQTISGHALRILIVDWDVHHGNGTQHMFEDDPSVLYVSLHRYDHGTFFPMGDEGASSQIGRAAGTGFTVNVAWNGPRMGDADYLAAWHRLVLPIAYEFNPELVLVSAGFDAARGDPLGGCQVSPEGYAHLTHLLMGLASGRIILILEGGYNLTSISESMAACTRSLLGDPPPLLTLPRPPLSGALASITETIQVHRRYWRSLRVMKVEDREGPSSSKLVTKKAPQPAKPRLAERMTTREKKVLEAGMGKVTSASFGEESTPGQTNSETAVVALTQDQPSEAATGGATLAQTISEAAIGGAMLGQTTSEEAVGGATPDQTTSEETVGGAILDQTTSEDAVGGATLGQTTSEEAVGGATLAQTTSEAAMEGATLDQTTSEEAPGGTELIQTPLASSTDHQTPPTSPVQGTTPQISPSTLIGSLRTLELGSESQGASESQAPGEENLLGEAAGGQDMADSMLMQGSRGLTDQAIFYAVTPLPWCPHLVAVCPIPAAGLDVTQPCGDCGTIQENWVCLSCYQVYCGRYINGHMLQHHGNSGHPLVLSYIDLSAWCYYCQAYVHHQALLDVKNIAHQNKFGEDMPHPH
The assay can be described thus: Inhibition of HDAC6 (unknown origin) by fluorescence assay.

A further assay concerns the target T2, Histone deacetylase 8 (Homo sapiens, UniProt Q9BY41).
T2 sequence (Q9BY41 whole entry): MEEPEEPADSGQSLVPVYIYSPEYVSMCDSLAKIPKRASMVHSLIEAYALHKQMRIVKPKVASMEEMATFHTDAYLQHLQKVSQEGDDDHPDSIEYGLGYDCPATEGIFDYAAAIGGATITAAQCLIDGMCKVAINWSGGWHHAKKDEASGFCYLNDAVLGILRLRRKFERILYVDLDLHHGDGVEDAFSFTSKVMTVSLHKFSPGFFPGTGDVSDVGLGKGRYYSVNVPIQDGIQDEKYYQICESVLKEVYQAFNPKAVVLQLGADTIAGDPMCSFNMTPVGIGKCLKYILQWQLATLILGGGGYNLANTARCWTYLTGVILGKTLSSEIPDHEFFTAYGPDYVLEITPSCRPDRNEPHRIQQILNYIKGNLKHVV
The assay can be described thus: Inhibition of HDAC8 (unknown origin) by fluorescence assay.

The target in another assay is Histone deacetylase 3 (Homo sapiens, UniProt O15379). Put plainly: Inhibition of HDAC3 (unknown origin) by fluorescence assay.
For another assay, the target named is Histone deacetylase 1 (Homo sapiens, UniProt Q13547). Put plainly: Inhibition of HDAC1 (unknown origin) by fluorescence assay.
A further assay concerns the target Histone deacetylase 2 (Homo sapiens, UniProt Q92769). Put plainly: Inhibition of HDAC2 (unknown origin) by fluorescence assay.
Assay [2] can be described thus: Inhibition of HDAC activity in human HeLa nuclear extract.
For another assay, the target named is Histone deacetylase 4 (Homo sapiens, UniProt P56524). The assay can be described thus: Inhibition of HDAC4 (unknown origin) by fluorescence assay.

Molecules are shown by their SMILES. Some results are limits rather than exact numbers.

Chain of Histone deacetylase 3 (O15379 whole entry): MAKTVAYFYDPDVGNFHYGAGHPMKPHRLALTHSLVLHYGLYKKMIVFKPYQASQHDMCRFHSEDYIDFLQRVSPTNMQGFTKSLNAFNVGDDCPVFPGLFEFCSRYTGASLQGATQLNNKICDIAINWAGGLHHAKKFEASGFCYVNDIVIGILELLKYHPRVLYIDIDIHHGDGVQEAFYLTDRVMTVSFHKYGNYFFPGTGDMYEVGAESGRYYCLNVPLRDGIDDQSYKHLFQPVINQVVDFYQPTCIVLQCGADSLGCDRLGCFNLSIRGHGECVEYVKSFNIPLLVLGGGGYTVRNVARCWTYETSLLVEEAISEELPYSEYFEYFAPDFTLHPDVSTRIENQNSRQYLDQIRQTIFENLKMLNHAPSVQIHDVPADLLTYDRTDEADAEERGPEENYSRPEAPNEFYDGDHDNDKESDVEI
Chain of Histone deacetylase 2 (Q92769 whole entry): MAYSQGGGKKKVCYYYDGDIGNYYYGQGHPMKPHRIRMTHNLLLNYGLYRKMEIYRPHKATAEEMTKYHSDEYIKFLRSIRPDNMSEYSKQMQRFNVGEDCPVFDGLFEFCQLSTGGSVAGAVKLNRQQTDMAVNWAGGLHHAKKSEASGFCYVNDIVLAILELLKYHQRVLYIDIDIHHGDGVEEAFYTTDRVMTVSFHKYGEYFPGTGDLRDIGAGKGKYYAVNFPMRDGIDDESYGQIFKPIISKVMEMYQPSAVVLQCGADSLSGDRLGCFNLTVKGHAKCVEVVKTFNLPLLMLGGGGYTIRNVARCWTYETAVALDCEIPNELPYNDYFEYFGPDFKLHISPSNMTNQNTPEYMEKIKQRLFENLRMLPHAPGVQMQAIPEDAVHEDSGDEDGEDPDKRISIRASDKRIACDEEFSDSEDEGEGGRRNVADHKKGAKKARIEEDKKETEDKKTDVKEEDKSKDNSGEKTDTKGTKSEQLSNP
Chain of Histone deacetylase 1 (Q13547 whole entry): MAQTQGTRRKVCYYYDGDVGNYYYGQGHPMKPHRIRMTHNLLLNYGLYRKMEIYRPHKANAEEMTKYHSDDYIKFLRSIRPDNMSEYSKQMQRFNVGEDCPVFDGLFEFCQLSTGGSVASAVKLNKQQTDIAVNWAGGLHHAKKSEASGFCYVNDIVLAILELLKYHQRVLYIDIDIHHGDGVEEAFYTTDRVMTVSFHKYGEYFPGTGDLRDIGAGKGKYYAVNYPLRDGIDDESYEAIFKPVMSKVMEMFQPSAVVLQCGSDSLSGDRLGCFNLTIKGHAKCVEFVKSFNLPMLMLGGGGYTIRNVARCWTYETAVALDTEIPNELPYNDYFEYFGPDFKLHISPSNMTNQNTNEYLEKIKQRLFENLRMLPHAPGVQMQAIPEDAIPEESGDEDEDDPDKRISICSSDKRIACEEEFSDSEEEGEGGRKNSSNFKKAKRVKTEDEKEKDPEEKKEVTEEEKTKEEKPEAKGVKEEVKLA
Chain of Histone deacetylase 4 (P56524 whole entry): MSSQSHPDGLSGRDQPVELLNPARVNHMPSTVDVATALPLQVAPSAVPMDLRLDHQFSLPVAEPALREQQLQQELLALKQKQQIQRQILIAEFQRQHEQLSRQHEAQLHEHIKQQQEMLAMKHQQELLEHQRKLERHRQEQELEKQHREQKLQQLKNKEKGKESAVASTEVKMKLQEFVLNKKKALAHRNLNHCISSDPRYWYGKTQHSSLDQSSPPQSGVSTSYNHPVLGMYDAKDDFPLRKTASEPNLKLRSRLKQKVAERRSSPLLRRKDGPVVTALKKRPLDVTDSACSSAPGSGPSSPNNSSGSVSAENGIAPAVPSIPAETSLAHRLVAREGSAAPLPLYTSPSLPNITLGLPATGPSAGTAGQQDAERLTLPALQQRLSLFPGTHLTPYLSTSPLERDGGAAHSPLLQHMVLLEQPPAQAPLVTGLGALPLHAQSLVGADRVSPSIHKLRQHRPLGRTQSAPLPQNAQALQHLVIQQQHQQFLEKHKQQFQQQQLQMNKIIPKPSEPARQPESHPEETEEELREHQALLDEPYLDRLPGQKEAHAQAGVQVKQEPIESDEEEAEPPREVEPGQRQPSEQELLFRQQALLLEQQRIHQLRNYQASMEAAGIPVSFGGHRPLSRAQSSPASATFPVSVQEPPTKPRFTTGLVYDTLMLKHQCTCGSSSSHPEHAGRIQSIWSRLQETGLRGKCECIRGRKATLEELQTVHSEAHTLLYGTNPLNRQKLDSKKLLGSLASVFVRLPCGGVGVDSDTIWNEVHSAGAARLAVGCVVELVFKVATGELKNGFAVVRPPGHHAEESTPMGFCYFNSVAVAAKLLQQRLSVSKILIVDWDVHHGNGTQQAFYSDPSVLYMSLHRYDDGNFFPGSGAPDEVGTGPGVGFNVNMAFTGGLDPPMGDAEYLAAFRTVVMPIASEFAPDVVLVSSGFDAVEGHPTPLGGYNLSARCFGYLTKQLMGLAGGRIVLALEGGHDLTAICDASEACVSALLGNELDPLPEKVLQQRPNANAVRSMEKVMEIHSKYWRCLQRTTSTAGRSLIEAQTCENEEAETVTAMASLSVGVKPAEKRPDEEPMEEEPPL

A word on the IC50: it is the concentration at which inhibition is half-maximal. The low end stands for greater potency in that assay, the high end for weaker potency in that assay. Consider `O=C(NO)c1cccc(-c2csc(CSc3ccccc3)n2)c1`, for which the IC50 in assay [1] was 14 µM; at Histone deacetylase 8, 0.15 µM; against Histone deacetylase 3 it was 12 µM; on Histone deacetylase 1 it was greater than 100 µM; against Histone deacetylase 2, greater than 100 µM; in assay [2], greater than 100 µM. For the same compound, the IC50 against Histone deacetylase 4 is greater than 100 µM.
